Results on 2 compounds are retold here after patent US20260021061A1, “ARIADNE AND ANALOGS FOR THE TREATMENT OF NEUROLOGICAL AND NEUROMUSCLAR DISORDERS” (priority 2022, published 2026).

The target in series [1] is T1, Protein Tyrosine Kinase, LCK (Homo sapiens, UniProt P06239).
T1 construct: Eurofins-Panlabs (contract screen) 176020
The experiment in a line: SafetyScreen44 176020. The format is biochemical. As to conditions: 10 μM; Poly(Glu:Tyr); recombinant. The procedure:
(§1) A broad screen of 44 molecular targets (SafetyScreen44, Eurofins-Panlabs) for Ariadne were performed, which includes G protein-coupled receptors, steroid nuclear receptors, ion channels, neurotransmitter transporters, and metabolic and signaling enzymes. Only two molecular targets, 5-HT2A and 5-HT2B receptors, emerged above the positive hit threshold, defined as 50% displacement of standard radioligands by 10 uM concentration of Ariadne (FIG. 1b, and Table 1).
(§2) For species, “H”=human, “R”=rat. Test compound screened at all targets at concentration of 10 μM.

Series [2] has as its system GABAA, Flunitrazepam, Central. As to the kind of experiment: SafetyScreen44 226600. As to conditions: 10 μM; [3H]Flunitrazepam; brain (minus cerebellum). The format is binding, rat. The method, then:
as §1, §2

A further series has as its target T2, Cannabinoid CB1 (Homo sapiens, UniProt P21554).
T2 construct: Eurofins-Panlabs (contract screen) 217050
As to the kind of experiment: SafetyScreen44 217050. As to conditions: 10 μM; [3H]SR141716A; recombinant. The format is binding. The procedure: as §1, §2

For series [3], the target named is T3, Serotonin (5-Hydroxytryptamine) 5-HT2A (Homo sapiens, UniProt P28223).
T3 construct: purchased Eurofins-Panlabs (contract screen SafetyScreen44) assay ID 271650
T3 sequence (P28223 whole entry): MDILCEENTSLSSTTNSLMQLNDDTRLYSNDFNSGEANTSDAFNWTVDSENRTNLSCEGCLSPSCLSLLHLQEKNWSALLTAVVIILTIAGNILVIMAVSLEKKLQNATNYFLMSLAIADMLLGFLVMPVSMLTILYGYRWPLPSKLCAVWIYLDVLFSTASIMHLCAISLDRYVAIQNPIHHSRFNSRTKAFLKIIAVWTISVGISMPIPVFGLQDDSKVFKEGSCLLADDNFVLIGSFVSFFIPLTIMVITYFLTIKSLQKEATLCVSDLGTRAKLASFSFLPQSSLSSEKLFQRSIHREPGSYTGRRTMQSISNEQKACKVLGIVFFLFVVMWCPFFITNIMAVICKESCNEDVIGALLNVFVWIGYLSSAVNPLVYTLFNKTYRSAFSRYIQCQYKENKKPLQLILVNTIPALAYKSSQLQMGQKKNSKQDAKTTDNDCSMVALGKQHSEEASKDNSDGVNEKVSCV
As to the kind of experiment: SafetyScreen44 271650. The format is binding. To be noted: 10 μM, [3H]Ketanserin, recombinant. The method, then:
as §1, §2

In a further series the target is T4, Dopamine D2S (Homo sapiens, UniProt P14416).
T4 construct: Eurofins-Panlabs (contract screen) 219700
T4 sequence (P14416 1-414 isoform P14416-2): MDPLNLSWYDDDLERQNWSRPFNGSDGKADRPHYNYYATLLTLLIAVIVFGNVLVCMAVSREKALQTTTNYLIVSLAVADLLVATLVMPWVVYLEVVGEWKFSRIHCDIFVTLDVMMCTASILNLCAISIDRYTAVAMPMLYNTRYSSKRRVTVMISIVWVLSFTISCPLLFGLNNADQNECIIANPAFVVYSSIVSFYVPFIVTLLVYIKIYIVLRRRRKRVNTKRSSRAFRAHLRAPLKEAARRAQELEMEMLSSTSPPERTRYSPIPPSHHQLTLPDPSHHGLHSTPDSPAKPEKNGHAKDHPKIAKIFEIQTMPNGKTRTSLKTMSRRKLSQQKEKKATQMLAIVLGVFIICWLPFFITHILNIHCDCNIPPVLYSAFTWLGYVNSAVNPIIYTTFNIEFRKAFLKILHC
As to the kind of experiment: SafetyScreen44 219700. To be noted: 10 μM; [3H]Spiperone; recombinant. The format is binding. The procedure:
as §1, §2

Series [4] has as its target T5, Serotonin (5-Hydroxytryptamine) 5-HT1B (Homo sapiens, UniProt P28222).
T5 construct: purchased Eurofins-Panlabs (contract screen SafetyScreen44) assay ID 271230
The experiment in a line: SafetyScreen44 271230. It is filed as binding. To be noted: 10 μM; [3H]GR125743; recombinant. The method, then: as §1, §2

The target of another series is T6, Adenosine A2A (Homo sapiens, UniProt P29274).
T6 construct: Eurofins-Panlabs (contract screen) 200610
T6 sequence (P29274 whole entry): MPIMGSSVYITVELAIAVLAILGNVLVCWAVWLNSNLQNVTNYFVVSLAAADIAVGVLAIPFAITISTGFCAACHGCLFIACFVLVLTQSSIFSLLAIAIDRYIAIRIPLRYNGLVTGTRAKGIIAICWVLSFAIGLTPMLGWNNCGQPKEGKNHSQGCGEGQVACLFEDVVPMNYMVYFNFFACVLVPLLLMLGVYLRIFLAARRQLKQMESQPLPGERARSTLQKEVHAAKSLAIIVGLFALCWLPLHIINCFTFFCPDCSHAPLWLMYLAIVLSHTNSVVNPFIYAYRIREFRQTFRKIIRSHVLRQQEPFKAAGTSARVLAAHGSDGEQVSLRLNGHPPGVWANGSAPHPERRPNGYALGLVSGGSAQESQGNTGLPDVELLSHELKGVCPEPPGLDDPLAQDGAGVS
The experiment in a line: SafetyScreen44 200610. It is filed as binding. To be noted: 10 μM; [3H]CGS-21680; recombinant. The procedure: as §1, §2

For another series, the system named is Potassium Channel [KA]. The experiment in a line: SafetyScreen44 265510. To be noted: 10 μM; [125I]alpha-Dendrotoxin; cerebral cortex. It is filed as binding, rat. The procedure:
as §1, §2

The next series addresses T7, Glucocorticoid (Homo sapiens, UniProt P04150).
T7 construct: Eurofins-Panlabs (contract screen) 232030
The experiment in a line: SafetyScreen44 232030. It is filed as binding. To be noted: 10 μM; [3H]Dexamethasone; recombinant. The method, then: as §1, §2

For the next series, the target named is T8, Muscarinic M2 (Homo sapiens, UniProt P08172).
T8 construct: purchased Eurofins-Panlabs (contract screen SafetyScreen44) assay ID 252710
T8 sequence (P08172 whole entry): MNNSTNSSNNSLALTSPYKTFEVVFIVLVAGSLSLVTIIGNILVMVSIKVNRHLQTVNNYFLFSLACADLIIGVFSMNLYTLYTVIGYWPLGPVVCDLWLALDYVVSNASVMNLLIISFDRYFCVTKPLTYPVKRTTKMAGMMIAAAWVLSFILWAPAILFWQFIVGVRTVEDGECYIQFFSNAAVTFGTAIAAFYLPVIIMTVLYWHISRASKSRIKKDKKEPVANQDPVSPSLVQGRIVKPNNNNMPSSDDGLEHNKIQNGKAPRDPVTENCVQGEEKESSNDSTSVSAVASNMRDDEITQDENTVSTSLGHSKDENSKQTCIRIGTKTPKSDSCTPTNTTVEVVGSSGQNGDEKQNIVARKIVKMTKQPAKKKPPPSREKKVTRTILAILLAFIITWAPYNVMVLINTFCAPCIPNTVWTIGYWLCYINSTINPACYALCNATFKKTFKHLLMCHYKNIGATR
The experiment in a line: SafetyScreen44 252710. The format is binding. To be noted: 10 μM; [3H]N-Methylscopolamine; recombinant. The procedure: as §1, §2

A further series deals with humans. To be noted: in vivo; cited from earlier work.
Series [5] has as its system Calcium Channel L-Type, Dihydropyridine. The experiment in a line: SafetyScreen44 214600. The format is binding, rat. As to conditions: 10 μM; [3H]Nitrendipine; cerebral cortex. The method, then:
as §1, §2

In a further series the target is T9, Androgen (Testosterone) (Homo sapiens, UniProt P10275, T878A).
T9 construct: Eurofins-Panlabs (contract screen) 206000
T9 sequence (P10275 whole entry T878A): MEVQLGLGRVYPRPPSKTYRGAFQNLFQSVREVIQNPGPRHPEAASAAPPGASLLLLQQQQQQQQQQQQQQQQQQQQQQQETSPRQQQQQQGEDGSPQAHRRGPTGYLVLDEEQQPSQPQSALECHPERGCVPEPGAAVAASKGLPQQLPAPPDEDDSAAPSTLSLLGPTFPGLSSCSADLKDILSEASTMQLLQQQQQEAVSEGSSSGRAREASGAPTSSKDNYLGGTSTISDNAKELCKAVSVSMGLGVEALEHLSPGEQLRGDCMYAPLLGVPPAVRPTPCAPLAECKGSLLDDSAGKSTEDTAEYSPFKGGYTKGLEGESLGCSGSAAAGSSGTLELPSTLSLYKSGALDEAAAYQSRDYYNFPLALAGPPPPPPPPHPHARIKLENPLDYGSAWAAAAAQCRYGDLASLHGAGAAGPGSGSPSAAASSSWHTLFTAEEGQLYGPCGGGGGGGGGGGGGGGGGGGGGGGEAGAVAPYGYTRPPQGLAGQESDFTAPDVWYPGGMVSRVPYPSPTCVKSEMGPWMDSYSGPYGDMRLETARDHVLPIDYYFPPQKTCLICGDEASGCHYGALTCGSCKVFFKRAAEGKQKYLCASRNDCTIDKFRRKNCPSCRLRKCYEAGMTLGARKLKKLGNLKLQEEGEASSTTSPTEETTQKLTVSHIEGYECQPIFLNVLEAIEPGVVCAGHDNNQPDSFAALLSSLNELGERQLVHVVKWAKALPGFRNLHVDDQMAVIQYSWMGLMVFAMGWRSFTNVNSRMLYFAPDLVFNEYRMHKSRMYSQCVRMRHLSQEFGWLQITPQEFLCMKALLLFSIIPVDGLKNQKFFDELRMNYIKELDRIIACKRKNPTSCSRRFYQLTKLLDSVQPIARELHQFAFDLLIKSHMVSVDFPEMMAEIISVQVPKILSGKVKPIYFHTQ
As to the kind of experiment: SafetyScreen44 206000. It is filed as binding. To be noted: 10 μM; [3H]Methyltrienolone; LNCaP clone FGC cells. The method, then:
as §1, §2

The next series concerns the target T10, Muscarinic M3 (Homo sapiens, UniProt P20309).
T10 construct: purchased Eurofins-Panlabs (contract screen SafetyScreen44) assay ID 252810
As to the kind of experiment: SafetyScreen44 252810. The format is binding. As to conditions: 10 μM; [3H]N-Methylscopolamine; recombinant. The method, then: as §1, §2

The target of the next series is 5-HT1F receptor (Homo sapiens, UniProt P30939). The experiment in a line: 5-HTome G protein activation BRET assay.
Chain of 5-HT1F receptor (P30939 whole entry): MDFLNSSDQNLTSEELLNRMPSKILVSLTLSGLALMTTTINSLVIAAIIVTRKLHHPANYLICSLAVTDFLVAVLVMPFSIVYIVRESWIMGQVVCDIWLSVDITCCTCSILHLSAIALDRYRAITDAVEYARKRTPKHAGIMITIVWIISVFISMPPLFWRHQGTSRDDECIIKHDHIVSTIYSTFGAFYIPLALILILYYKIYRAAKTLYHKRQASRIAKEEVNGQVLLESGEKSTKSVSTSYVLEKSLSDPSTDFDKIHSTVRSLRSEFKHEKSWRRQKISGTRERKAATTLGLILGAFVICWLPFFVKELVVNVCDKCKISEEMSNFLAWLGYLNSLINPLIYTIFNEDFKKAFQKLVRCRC
The test system of series [6] is auxilin knockout (KO) mice. As to the kind of experiment: Hind limb clasping in auxilin KO mouse model of Parkinson's Disease. As to conditions: Aux-KO mice; 10 mg/kg intraperitoneal; 15 to 30 minutes after treatment. It is filed as in vivo. An excerpt: R-Ariadne ameliorates motor abnormalities in a mouse model of Parkinson's Disease. In the 1978 patent from the Bristol Laboratories, the inventors noted complete remission of Parkinson's symptoms in two patients (Partyka el al., U.S. Pat. No. 4,105,695, 1978). To address and examine these claims via reverse translation in mice, we used a novel model of PD based on auxilin knockout (KO) mice (Vidyadhara et al., 2022). Auxilin is a clathrin uncoating protein that participates in clathrin mediated endocytosis of synaptic vesicles (SV), enabling SV recycling and neurotransmission (Vidyadhara et al., 2022). Loss-of-function mutations in auxilin (DNAJC6/PARK19) cause PD. Auxilin KO mice display cardinal features of PD such as progressive motor deficits, nigral dopaminergic neuronal loss, α-synuclein pathology, and neuroinflammation. 9-12 month old Aux-KO mice were previously shown to respond to L-DOPA treatment, which ameliorated PD-like motor abnormalities (Vidyadhara et al., 2022). […] The balance beam test evaluates fine motor skills such as ability to walk on a raised narrow beam to reach a safety box, measured as a number of runs/minute and time taken to cross the beam (FIGS. 9-10). […]

The test system of another series is patients. As to conditions: cited from earlier work.
Series [7] relates to auxilin knockout (KO) mice. As to the kind of experiment: Open field test in auxilin KO mouse model of Parkinson's Disease. It is filed as in vivo. To be noted: Aux-KO mice; 10 mg/kg intraperitoneal; confounded by learning effects.
The next series concerns the target 5-HT2B (Homo sapiens, UniProt P41595). As to the kind of experiment: Calcium flux assay. It is filed as cell-based. To be noted: read-out: Emax relative to 5-HT, calcium flux.

T2 sequence (P21554 whole entry): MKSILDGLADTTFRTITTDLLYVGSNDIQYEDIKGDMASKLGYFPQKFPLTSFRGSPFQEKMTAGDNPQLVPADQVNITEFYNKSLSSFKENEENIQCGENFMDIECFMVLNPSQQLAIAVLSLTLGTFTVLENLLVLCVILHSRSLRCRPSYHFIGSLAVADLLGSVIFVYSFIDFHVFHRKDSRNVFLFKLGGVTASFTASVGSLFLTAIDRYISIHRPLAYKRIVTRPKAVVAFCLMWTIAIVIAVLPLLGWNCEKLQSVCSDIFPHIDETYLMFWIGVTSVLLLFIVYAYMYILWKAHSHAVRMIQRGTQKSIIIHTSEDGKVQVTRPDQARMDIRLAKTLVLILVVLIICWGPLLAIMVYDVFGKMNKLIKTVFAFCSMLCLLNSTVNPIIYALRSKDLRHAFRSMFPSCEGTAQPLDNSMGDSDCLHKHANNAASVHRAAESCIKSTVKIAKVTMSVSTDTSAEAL
T10 sequence (P20309 whole entry): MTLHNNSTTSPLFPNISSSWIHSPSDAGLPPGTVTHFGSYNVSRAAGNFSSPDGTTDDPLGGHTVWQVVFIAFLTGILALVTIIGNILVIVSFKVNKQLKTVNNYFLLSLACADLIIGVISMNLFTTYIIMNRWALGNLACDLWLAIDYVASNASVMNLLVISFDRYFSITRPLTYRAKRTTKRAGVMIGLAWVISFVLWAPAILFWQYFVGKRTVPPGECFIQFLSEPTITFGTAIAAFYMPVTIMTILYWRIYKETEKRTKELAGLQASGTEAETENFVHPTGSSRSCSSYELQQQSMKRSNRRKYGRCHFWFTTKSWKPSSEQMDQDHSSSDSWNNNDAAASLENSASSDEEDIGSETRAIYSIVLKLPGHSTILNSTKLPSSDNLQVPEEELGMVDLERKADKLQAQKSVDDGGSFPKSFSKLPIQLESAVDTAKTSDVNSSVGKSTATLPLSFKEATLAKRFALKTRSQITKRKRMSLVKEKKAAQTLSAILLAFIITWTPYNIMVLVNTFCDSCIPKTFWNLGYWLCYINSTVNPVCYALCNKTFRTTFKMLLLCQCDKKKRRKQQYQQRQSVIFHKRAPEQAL
T5 sequence (P28222 whole entry): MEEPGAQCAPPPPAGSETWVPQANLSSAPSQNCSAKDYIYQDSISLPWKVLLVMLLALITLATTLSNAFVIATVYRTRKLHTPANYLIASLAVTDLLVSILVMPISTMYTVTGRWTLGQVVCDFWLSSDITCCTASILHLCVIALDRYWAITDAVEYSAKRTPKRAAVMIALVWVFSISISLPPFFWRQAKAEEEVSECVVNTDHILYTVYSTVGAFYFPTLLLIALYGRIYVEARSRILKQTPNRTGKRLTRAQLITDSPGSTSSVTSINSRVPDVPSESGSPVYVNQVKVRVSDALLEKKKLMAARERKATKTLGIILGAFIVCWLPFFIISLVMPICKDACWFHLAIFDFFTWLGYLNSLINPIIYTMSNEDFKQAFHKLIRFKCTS
Chain of 5-HT2B (P41595 whole entry): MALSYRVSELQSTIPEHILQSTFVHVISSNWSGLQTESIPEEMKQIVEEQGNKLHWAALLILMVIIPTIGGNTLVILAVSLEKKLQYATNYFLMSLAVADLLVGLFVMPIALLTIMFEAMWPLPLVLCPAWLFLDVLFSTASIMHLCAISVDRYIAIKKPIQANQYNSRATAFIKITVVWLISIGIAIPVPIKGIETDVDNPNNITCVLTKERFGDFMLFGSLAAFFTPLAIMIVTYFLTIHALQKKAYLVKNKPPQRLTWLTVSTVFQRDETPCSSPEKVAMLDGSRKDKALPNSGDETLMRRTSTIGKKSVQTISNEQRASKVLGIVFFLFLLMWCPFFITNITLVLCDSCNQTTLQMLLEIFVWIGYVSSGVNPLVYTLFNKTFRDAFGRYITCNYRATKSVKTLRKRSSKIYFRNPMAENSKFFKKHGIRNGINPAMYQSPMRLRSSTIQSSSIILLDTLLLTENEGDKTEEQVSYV
Method for 5-HT1F receptor: All BRET assays were conducted using BRET2 in HEK293T cells (ATCC CRL-11268; mycoplasma-free), which were subcultured in high-glucose DMEM (VWR) supplemented with 10% FBS (Life Technologies).
Constructs in G protein-dissociation BRET assays were derived from the codon-optimized Tango pcDNA3.1 library (Addgene) with V2tail/TEV/tTA encoding regions deleted to yield “de-Tango” constructs. […] All Gα-Rluc8, Beta, and GFP2-γ constructs were derived from the TRUPATH pcDNA5/FRT/TO library (Addgene). […]
On the day of the assay, plates were decanted and 20 uL of drug buffer per well (1×HBSS, 20 mM HEPES, pH 7.4) was added using a Multidrop (ThermoFisher Scientific), and plates were allowed to equilibrate at 37° C. in a humidified incubator before receiving drug stimulation. […] Before reading, addition of coelenterazine 400a (5 uM final concentration; Nanolight Technology) was performed by the [sequence]. Immediately after, plates were read at 400 nm Rluc and fluorescent GFP2 emission at 510 nm for BRET2 at 0.8 second per well using a PheraStarFSX (BMB Lab Tech).
The BRET ratios of 510/400 luminescence were calculated per well and were plotted as a function of drug concentration using Graphpad Prism 5 or 9 (Graphpad Software Inc., San Diego, CA). […]
Method for 5-HT2B: Therefore, an orthogonal assay measuring calcium flux was also performed for the 5-HT2 receptors (Klein et al., 2020).

Turning to `CCC(N)Cc1cc(OC)c(C)cc1OC` (racemic) [Compound 32, 1-(2,5-dimethoxy-4-methylphenyl)butan-2-amine], the “% Response” value in series [1] was 13%; in series [2], −15%; at Cannabinoid CB1, 1%; in [3] (listed as (rac)-Ariadne), “more than 50%”; in series [3] (listed as Ariadne), 72%; at Dopamine D2S, 1%. Further, the “% Response” value in series [4] is 12%; at Adenosine A2A it was 10%; in the series on Potassium Channel [KA], −6%; on Glucocorticoid, −5%; at Muscarinic M2 it was 0%; in [5] it was −13%. Besides, the “% Response” value is reported as −8% at Androgen (Testosterone) and −11% on Muscarinic M3. In the series with humans, the “hallucinogenic effects in humans” value was “lack the hallucinogenic effects”.

On 5-HT1F receptor, `CC[C@@H](N)Cc1cc(OC)c(C)cc1OC` [(R)-Ariadne] had an EC50 of about 5 µM and an Emax of over 70%. In series [6], the clasping duration result is “down to zero” and the hindlimb clasping score result is reported as “down to zero”. Besides, in the series with patients (100 mg per day), the “symptoms in subjects with Parkinson's disease” value is given as “nearly complete remission of symptoms”. Also, the “psychotic symptoms in schizophrenia and bipolar disorder” value in the series with patients (50-100 mg per day) is “rapid remission of psychotic symptoms”. For the same compound, in the series with patients (up to and beyond 100 mg per day, including patients with psychosis), the hallucinogenic effects result is “lack of hallucinogenic effects”. Also, in [7], the “overall locomotory deficits in the open field” value is recorded as “partially rescued”. Moreover, the Emax at 5-HT2B was 64%.

For orientation: EC50 means the concentration giving half of the maximal effect. A low value points to greater potency. The term Emax denotes the maximal effect, on the per cent scale that the assay sets.
